Measurements from ChEMBL document CHEMBL3758176, “Synthesis of dihydrosterculic acid-based monoglucosyl diacylglycerol and its analogues and their biological evaluation” (Eur J Med Chem, 2016).
Calls of active or inactive are those of the source. No cut-off for these calls is given here.

Tests used:
[1] = Cytotoxicity against human DU145 cells assessed as reduction in cell viability by MTT assay; type: functional, cell-based, DU-145
HUVEC = test: Cytotoxicity against HUVEC assessed as reduction in cell viability by MTT assay; type: cell-based, Homo sapiens
[2] = Cytotoxicity against human SKOV3 cells assessed as reduction in cell viability by MTT assay; type: functional, cell-based, SK-OV-3
A549 = test: Cytotoxicity against human A549 cells assessed as reduction in cell viability by MTT assay; type: functional, cell-based
MCF7 [3] = test: Cytotoxicity against human MCF7 cells assessed as reduction in cell viability by MTT assay; type: functional, cell-based
MCF7 [4] = test: Antiproliferative activity against human MCF7 cells assessed as decrease in cell proliferation at 5 to 10 uM after 24 hrs by bromodeoxyuridine cell proliferation assay relative to untreated control; type: functional, cell-based
MCF7 [5] = test: Induction of apoptosis in human MCF7 cells assessed as caspase-9 activation using AFC-conjugated Ac-LEHD as substrate at 5 to 10 uM incubated for 24 to 48 hrs by fluorescence assay relative to untreated control; type: functional
MCF7 [6] = test: Induction of apoptosis in human MCF7 cells assessed as caspase-3 activation using AFC-conjugated Ac-DEVD as substrate at 5 to 10 uM incubated for 24 to 48 hrs by fluorescence assay relative to untreated control; type: functional
[7] = Homo sapiens, DU-145, read-out: IC50
[8] = Homo sapiens, HUVEC, read-out: IC50
[9] = Homo sapiens, SK-OV-3, read-out: IC50
[10] = Homo sapiens, MCF7, read-out: IC50
[11] = Homo sapiens, A549, read-out: IC50

SMILES: COc1cccc2c1C(=O)c1c(O)c3c(c(O)c1C2=O)C[C@@](O)(C(=O)CO)C[C@@H]3O[C@H]1C[C@H](N)[C@H](O)[C@H](C)O1 [DOXORUBICIN]
- IC50 [1, 7]: 0.7 µM
- IC50 (HUVEC; [8]): 79.6 µM
- IC50 [2, 9]: 0.7 µM

SMILES: CCCCCCCC/C=C\CCCCCCCC(=O)O[C@H](COC(=O)CCCCCCCC1CC1CCCCCCCC)CO[C@@H]1O[C@H](COC(C)=O)[C@@H](OC(C)=O)[C@H](OC(C)=O)[C@H]1OC(C)=O (stereo partly specified)
- IC50 (A549; a549): Not Active
- IC50 [1, 7]: 186 µM
- IC50 (HUVEC; [8]): 122 µM
- IC50 (MCF7 [3]; [10]): 94.2 µM
- IC50 ([2]; sk-ov-3): Not Active

SMILES: C=CCCCCCCCCC(=O)OC[C@H](CO[C@@H]1O[C@H](CO)[C@@H](O)[C@H](O)[C@H]1O)OC(=O)CCCCCCCCC=C
- IC50 (A549; [11]): 106 µM
- IC50 [1, 7]: 119 µM
- IC50 (HUVEC; [8]): 126 µM
- IC50 (MCF7 [3]; [10]): 32.5 µM
- IC50 [2, 9]: 89.6 µM

SMILES: CCCCCCCCCCCC(=O)OC[C@H](CO[C@@H]1O[C@H](CO)[C@@H](O)[C@H](O)[C@H]1O)OC(=O)CCCCCCCCCCC
- IC50 (A549; [11]): 35.6 µM
- IC50 [1, 7]: 54.9 µM
- IC50 (HUVEC; [8]): 96.1 µM
- IC50 (MCF7 [3]; [10]): 32.6 µM
- IC50 [2, 9]: 44.4 µM

SMILES: CCCCCCCC/C=C\CCCCCCCC(=O)O[C@H](COC(=O)CCCCCCCC1CC1CCCCCCCC)CO[C@@H]1O[C@H](CO)[C@@H](O)[C@H](O)[C@H]1O (stereo partly specified)
- IC50 (A549; [11]): 41.6 µM
- IC50 [1, 7]: 38.9 µM
- IC50 (HUVEC; [8]): 99.8 µM
- IC50 (MCF7 [3]; [10]): 38.2 µM
- IC50 [2, 9]: 35.6 µM

SMILES: CCCCCCCC/C=C\CCCCCCCC(=O)OC[C@H](CO[C@@H]1O[C@H](COC(C)=O)[C@@H](OC(C)=O)[C@H](OC(C)=O)[C@H]1OC(C)=O)OC(=O)CCCCCCC/C=C\CCCCCCCC
- IC50 (A549; a549): Not Active
- IC50 ([1]; du-145): Not Active
- IC50 (HUVEC; huvec): Not Active
- IC50 (MCF7 [3]; mcf7): Not Active
- IC50 ([2]; sk-ov-3): Not Active

SMILES: CCCCCCCC/C=C\CCCCCCCC(=O)OC[C@H](CO[C@@H]1O[C@H](CO)[C@@H](O)[C@H](O)[C@H]1O)OC(=O)CCCCCCC/C=C\CCCCCCCC
- IC50 (A549; [11]): 18.2 µM
- Activity (MCF7 [4]): Active
- IC50 [1, 7]: 20.1 µM
- fold change (FC) (MCF7 [5]): 2
- IC50 (HUVEC; [8]): 110 µM
- IC50 (MCF7 [3]; [10]): 17.6 µM
- IC50 [2, 9]: 19.1 µM
- fold change (FC) (MCF7 [6]): 2

SMILES: CCCCCCCCC1CC1CCCCCCCC(=O)OC[C@H](CO[C@@H]1O[C@H](CO)[C@@H](O)[C@H](O)[C@H]1O)OC(=O)CCCCCCCC1CC1CCCCCCCC (stereo partly specified)
- IC50 (A549; [11]): 124 µM
- IC50 [1, 7]: 210 µM
- IC50 (HUVEC; [8]): 120 µM
- IC50 (MCF7 [3]; [10]): 99.8 µM
- IC50 [2, 9]: 112 µM

SMILES: CCCCCCCCCCCC(=O)OC[C@H](CO[C@@H]1O[C@H](COC(C)=O)[C@@H](OC(C)=O)[C@H](OC(C)=O)[C@H]1OC(C)=O)OC(=O)CCCCCCCCCCC
- IC50 (A549; a549): Not Active
- IC50 ([1]; du-145): Not Active
- IC50 (HUVEC; huvec): Not Active
- IC50 (MCF7 [3]; mcf7): Not Active
- IC50 ([2]; sk-ov-3): Not Active

SMILES: CCCCCCCCC1CC1CCCCCCCC(=O)OC[C@H](CO[C@@H]1O[C@H](COC(C)=O)[C@@H](OC(C)=O)[C@H](OC(C)=O)[C@H]1OC(C)=O)OC(=O)CCCCCCCC1CC1CCCCCCCC (stereo partly specified)
- IC50 (A549; a549): Not Active
- IC50 ([1]; du-145): Not Active
- IC50 (HUVEC; huvec): Not Active
- IC50 (MCF7 [3]; mcf7): Not Active
- IC50 ([2]; sk-ov-3): Not Active

SMILES: C=CCCCCCCCCC(=O)OC[C@H](CO[C@@H]1O[C@H](COC(C)=O)[C@@H](OC(C)=O)[C@H](OC(C)=O)[C@H]1OC(C)=O)OC(=O)CCCCCCCCC=C
- IC50 (A549; [11]): 30.2 µM
- IC50 [1, 7]: 33 µM
- IC50 (HUVEC; [8]): 119 µM
- IC50 (MCF7 [3]; [10]): 25.6 µM
- IC50 [2, 9]: 29.4 µM
